Experimental data taken from EP4745137A1 (Gluetacs Therapeutics (Shanghai) Co., Ltd., priority 2023, dated 2025).

How the values were obtained:
[1] = system: CAL-62; experiment: Tumor cell proliferation inhibition (CellTiter-Meiluncell Luminescent Cell Viability Assay), CAL-62; details: Homo sapiens, CAL-62, 96 h, read-out: inhibitory activity (IC50, nM) against tumor cells proliferation, CAL-62
[2] = molecular target: T1, CK1α (Homo sapiens, UniProt P48729+Q96SW2); experiment: Western-blot assay of substrate protein degradation in hPBMCs, CK1α; format: cell-based; details: 24 hours of compound treatment, compounds tested at 50 nM and 500 nM (concentration of the table not stated)
T1 construct: endogenous in cells; host or cells: hPBMCs (Milecell Biotechnologies)

[3] = molecular target: T2, IKZF1 (Homo sapiens, UniProt Q13422+Q96SW2); experiment: Western-blot assay of substrate protein degradation in hPBMCs, IKZF1; format: cell-based; details: 24 hours of compound treatment, compounds tested at 50 nM and 500 nM (concentration of the table not stated)
T2 construct: endogenous in cells; host or cells: hPBMCs (Milecell Biotechnologies)

[4] = system: CCRF-CEM; experiment: Tumor cell proliferation inhibition (CellTiter-Meiluncell Luminescent Cell Viability Assay), CCRF-CEM; details: Homo sapiens, 96 h, read-out: inhibitory activity (IC50, nM) against tumor cells proliferation, CCRF-CEM
[5] = system: Vcap; experiment: Tumor cell proliferation inhibition (CellTiter-Meiluncell Luminescent Cell Viability Assay), Vcap; details: Homo sapiens, 96 h, read-out: inhibitory activity (IC50, nM) against tumor cells proliferation, Vcap
[6] = molecular target: T3, WEE1 (Homo sapiens, UniProt P30291+Q96SW2); experiment: Western-blot assay of substrate protein degradation in hPBMCs, WEE1; format: cell-based; details: 24 hours of compound treatment, compounds tested at 50 nM and 500 nM (concentration of the table not stated)
T3 construct: endogenous in cells; host or cells: hPBMCs (Milecell Biotechnologies)

[7] = molecular target: T4, GSPT1 (Homo sapiens, UniProt P15170+Q96SW2); experiment: Western-blot assay of substrate protein degradation in hPBMCs, GSPT1; format: cell-based; details: 24 hours of compound treatment, compounds tested at 50 nM and 500 nM (concentration of the table not stated)
T4 construct: endogenous in cells; host or cells: hPBMCs (Milecell Biotechnologies)

[8] = molecular target: T5, IKZF2 (Homo sapiens, UniProt Q96SW2+Q9UKS7); experiment: Western-blot assay of substrate protein degradation in hPBMCs, IKZF2; format: cell-based; details: 24 hours of compound treatment, compounds tested at 50 nM and 500 nM (concentration of the table not stated)
T5 construct: endogenous in cells; host or cells: hPBMCs (Milecell Biotechnologies)

[9] = molecular target: T6, IKZF3 (Homo sapiens, UniProt Q96SW2+Q9UKT9); experiment: Western-blot assay of substrate protein degradation in hPBMCs, IKZF3; format: cell-based; details: 24 hours of compound treatment, compounds tested at 50 nM and 500 nM (concentration of the table not stated)
T6 construct: endogenous in cells; host or cells: hPBMCs (Milecell Biotechnologies)

[10] = system: MM.1R; experiment: Tumor cell proliferation inhibition (CellTiter-Meiluncell Luminescent Cell Viability Assay), MM.1R; details: Homo sapiens, 96 h, read-out: inhibitory activity (IC50, nM) against tumor cells proliferation, MM.1R
[11] = system: Jurkat; experiment: Tumor cell proliferation inhibition (CellTiter-Meiluncell Luminescent Cell Viability Assay), Jurkat; details: Homo sapiens, 96 h, read-out: inhibitory activity (IC50, nM) against tumor cells proliferation, Jurkat
[12] = system: Human acute T lymphocytic leukemia cells (Molt-4); experiment: Tumor cell proliferation inhibition (CellTiter-Meiluncell Luminescent Cell Viability Assay), Molt-4; details: MOLT-4, 96 h, read-out: inhibitory activity (IC50, nM) against tumor cells proliferation, Molt 4
Experimental: (§1) The tumor cells used herein were cultured in a cell culture medium listed in table 2 at 37°C in an incubator with 5% CO2. Prior to experimentation, all cell lines used were correctly identified by STR profiling, and tested negative for mycoplasma contamination using a mycoplasma detection kit through routine screenings.
(§2) On the following day, the test compounds of the present disclosure were subjected to serial dilution. […] Subsequently, 0.5 µL of the test compound dilution was transferred into the 96-well plate containing the cells, with each well containing 100 µL of cell culture medium. […] Into the 96-well plate, the diluted test compounds and corresponding detection reagents were added, resulting in final test compound concentrations of 500 nM and 10 nM, respectively. The experimental procedure is described below using the diluted 2 µM test compound as an example.
(§3) After the cells were treated with the compounds of the present disclosure for a specified period (the treatment durations were shown in Table 3), the cell viability assay reagent was added to the culture medium according to the kit's instructions to determine cell viability. […] All controls were treated using the same procedure as the compounds of the present disclosure. The growth inhibition curves for the compounds of the present disclosure were plotted using Prism GraphPad software, and the IC50 values were calculated therefrom.

[13] = molecular target: T7, human Cereblon WT GST-tagged protein (Homo sapiens, UniProt Q96SW2); experiment: CRBN-binding affinity by HTRF (CEREBLON BINDING kit); details: HTRF inhibitory activity, CEREBLON BINDING kit; read-out: HTRF IC50
T7 construct: purchased CISBIO 64BDCRBNPEH

[14] = system: NCI-H1975; experiment: Tumor cell proliferation inhibition (CellTiter-Meiluncell Luminescent Cell Viability Assay), NCI-H1975; details: Homo sapiens, NCI-H1975, 96 h, read-out: inhibitory activity (IC50, nM) against tumor cells proliferation, H1975
Experimental: as §1, §2, §3

[15] = system: Human breast cancer cells (MDA-MB-231); experiment: Tumor cell proliferation inhibition (CellTiter-Meiluncell Luminescent Cell Viability Assay), MDA-MB-231; details: MDA-MB-231, 96 h, read-out: inhibitory activity (IC50, nM) against tumor cells proliferation, MDA-MB-231
[16] = system: TMD8; experiment: Tumor cell proliferation inhibition (CellTiter-Meiluncell Luminescent Cell Viability Assay), TMD8; details: Homo sapiens, TMD8, 96 h, read-out: inhibitory activity (IC50, nM) against tumor cells proliferation, TMD8

T3 sequence (P30291 whole entry): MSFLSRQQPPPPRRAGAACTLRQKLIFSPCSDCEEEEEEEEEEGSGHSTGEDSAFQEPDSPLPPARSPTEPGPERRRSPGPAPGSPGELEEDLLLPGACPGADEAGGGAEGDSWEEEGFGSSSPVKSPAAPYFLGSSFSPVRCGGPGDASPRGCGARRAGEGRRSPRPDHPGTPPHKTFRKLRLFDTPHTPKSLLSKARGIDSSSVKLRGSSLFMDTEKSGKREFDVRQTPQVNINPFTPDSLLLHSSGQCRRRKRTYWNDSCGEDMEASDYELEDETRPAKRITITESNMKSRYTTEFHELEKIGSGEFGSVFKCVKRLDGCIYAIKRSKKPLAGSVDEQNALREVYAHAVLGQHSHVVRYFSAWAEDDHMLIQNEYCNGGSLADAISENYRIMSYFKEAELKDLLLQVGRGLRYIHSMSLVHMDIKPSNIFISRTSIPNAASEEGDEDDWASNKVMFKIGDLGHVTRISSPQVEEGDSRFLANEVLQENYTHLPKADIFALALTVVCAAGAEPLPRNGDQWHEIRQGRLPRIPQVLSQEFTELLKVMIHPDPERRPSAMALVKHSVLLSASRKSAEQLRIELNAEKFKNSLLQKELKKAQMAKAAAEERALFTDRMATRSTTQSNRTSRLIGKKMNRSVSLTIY
T3 sequence (Q96SW2 whole entry): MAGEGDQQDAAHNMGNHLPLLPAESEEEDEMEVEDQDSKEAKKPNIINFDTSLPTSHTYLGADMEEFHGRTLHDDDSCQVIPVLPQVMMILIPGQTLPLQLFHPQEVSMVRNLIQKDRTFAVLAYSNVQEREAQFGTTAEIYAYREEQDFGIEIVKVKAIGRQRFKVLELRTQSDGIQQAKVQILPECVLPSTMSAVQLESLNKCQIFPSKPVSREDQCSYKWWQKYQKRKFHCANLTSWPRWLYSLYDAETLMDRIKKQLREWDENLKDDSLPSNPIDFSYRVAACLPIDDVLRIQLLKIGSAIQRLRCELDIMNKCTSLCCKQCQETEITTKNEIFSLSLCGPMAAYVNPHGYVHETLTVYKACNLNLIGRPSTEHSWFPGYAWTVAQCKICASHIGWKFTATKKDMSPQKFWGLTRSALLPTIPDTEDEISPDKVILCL
T3 sequence (Q16531 whole entry partner): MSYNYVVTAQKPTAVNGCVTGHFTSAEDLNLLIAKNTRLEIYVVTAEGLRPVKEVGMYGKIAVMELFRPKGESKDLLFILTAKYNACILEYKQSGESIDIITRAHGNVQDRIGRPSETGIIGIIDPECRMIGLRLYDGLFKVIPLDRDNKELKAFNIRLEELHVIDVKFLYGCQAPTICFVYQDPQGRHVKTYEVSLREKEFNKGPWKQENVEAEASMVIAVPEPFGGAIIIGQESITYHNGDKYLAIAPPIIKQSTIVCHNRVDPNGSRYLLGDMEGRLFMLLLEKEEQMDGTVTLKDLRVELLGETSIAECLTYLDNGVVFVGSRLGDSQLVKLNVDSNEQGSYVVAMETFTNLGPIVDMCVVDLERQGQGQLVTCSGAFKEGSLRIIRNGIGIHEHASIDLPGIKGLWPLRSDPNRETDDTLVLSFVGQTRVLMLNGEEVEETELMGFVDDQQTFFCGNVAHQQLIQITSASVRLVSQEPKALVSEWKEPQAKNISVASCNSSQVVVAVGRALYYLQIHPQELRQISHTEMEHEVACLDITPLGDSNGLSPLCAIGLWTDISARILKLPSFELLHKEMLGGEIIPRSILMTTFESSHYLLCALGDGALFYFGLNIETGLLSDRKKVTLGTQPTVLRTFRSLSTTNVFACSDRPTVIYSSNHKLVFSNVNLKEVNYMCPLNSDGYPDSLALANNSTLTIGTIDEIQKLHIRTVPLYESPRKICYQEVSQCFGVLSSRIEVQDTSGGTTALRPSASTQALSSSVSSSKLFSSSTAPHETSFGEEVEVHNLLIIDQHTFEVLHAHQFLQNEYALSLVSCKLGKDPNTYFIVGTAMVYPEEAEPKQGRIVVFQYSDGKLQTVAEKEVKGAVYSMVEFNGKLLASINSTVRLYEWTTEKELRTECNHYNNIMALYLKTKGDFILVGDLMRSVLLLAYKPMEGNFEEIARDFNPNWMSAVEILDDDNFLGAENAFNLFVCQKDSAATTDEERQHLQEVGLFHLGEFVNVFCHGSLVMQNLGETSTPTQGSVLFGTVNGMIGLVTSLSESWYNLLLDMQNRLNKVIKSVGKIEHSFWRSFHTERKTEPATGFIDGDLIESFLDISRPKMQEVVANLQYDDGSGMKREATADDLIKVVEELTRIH
T1 sequence (P48729 whole entry): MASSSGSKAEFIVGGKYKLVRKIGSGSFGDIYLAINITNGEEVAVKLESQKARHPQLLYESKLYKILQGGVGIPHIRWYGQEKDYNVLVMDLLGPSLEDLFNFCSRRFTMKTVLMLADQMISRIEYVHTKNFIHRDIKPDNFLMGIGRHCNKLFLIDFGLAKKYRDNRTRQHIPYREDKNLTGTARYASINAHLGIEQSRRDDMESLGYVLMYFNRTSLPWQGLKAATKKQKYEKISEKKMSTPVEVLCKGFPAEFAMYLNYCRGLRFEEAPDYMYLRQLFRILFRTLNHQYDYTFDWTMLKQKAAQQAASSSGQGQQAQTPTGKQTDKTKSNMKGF
T1 sequence (Q96SW2 whole entry): as the sequence (Q96SW2 whole entry) above
T1 sequence (Q16531 whole entry partner): as the sequence (Q16531 whole entry partner) above
T5 sequence (Q9UKS7 whole entry): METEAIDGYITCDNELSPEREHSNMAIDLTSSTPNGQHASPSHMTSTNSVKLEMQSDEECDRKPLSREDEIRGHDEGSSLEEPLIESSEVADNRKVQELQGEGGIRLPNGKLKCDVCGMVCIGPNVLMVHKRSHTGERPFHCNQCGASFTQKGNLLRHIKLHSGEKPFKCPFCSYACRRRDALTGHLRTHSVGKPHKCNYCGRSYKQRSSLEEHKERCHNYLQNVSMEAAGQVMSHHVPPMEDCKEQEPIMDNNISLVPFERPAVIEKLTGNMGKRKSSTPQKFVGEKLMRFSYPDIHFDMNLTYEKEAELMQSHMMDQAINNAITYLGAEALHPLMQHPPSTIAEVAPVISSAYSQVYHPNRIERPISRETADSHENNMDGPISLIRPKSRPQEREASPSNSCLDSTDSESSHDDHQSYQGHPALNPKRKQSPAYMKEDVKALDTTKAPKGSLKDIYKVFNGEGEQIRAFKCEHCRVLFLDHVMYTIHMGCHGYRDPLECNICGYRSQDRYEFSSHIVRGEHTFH
T5 sequence (Q96SW2 whole entry): as the sequence (Q96SW2 whole entry) above
T5 sequence (Q16531 whole entry partner): as the sequence (Q16531 whole entry partner) above
T4 sequence (P15170 whole entry): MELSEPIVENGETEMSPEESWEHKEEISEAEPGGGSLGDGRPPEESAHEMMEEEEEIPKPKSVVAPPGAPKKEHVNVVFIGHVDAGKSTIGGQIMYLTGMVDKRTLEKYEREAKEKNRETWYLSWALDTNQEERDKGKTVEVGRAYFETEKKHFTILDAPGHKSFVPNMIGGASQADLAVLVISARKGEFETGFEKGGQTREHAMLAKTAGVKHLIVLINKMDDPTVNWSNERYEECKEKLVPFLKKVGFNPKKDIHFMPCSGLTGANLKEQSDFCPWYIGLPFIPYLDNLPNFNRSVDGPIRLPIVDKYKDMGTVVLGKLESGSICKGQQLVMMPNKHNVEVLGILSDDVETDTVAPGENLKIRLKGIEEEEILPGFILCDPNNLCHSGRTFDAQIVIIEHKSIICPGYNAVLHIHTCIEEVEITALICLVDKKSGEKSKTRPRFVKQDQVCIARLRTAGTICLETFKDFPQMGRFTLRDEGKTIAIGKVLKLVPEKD
T4 sequence (Q96SW2 whole entry): as the sequence (Q96SW2 whole entry) above
T4 sequence (Q16531 whole entry partner): as the sequence (Q16531 whole entry partner) above
T7 sequence (Q96SW2 whole entry): as the sequence (Q96SW2 whole entry) above
T6 sequence (Q9UKT9 whole entry): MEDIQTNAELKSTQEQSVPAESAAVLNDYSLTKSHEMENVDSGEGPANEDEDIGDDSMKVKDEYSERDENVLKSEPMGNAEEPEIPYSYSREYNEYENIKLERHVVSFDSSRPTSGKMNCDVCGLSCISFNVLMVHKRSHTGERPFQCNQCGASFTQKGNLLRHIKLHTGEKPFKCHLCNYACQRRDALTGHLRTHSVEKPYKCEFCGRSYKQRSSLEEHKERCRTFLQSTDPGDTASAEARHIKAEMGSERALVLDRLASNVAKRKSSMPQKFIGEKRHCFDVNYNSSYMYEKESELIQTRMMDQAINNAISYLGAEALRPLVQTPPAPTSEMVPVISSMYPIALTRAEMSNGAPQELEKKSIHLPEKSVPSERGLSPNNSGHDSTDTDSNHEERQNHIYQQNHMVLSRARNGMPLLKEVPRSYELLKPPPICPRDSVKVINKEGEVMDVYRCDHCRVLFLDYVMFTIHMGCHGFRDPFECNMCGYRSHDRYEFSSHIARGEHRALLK
T6 sequence (Q96SW2 whole entry): as the sequence (Q96SW2 whole entry) above
T6 sequence (Q16531 whole entry partner): as the sequence (Q16531 whole entry partner) above

IC50 [1] [nM] | IC50 [4] [nM] | IC50 [5] [nM] | IC50 [10] [nM] | IC50 [11] [nM] | IC50 [12] [nM] | IC50 [13] [nM] | IC50 [15] [nM] | IC50 [16] [nM] | Compound | CK1a substrate protein remaining % [2] | IKZF 1 substrate protein remaining % [3] | Weel substrate protein remaining % [6] | GSPT1 substrate protein remaining % [7] | IKZF2 substrate protein remaining % [8] | IKZF3 substrate protein remaining % [9] | IC50 [14] [nM]
50 to 100 | 10 to 50 | 100 to 500 | 50 to 100 | 10 to 50 | 10 to 50 | 500 to 1000 | – | – | O=C1CCC(N2Cc3cc(CN4CCN(c5cc(Cl)ccn5)CC4)ccc3C2=O)C(=O)N1 (stereo not shown) [GT-04430, 3-(5-((4-(4-chloropyridin-2-yl)piperazin-1-yl)methyl)-1-oxoisoindolin-2-yl)piperidine-2,6-dione] | B (80%< substrate protein remaining %≤ 100%) | A (0% ≤ substrate protein remaining % ≤ 80%) | B (80%< substrate protein remaining %≤ 100%) | A (0% ≤ substrate protein remaining % ≤ 80%) | A (0% ≤ substrate protein remaining % ≤ 80%) | A (0% ≤ substrate protein remaining % ≤ 80%) | –
50 to 100 | 10 to 50 | 100 to 500 | 10 to 50 | 10 to 50 | 10 to 50 | 1000 to 1500 | – | – | Cc1ccccc1N1CCN(Cc2ccc3c(c2)CN(C2CCC(=O)NC2=O)C3=O)CC1 (stereo not shown) [GT-04461, 3-(1-oxo-5-((4-(o-tolyl)piperazin-1-yl)methyl)isoindolin-2-yl)piperidine-2,6-dione] | B (80%< substrate protein remaining %≤ 100%) | A (0% ≤ substrate protein remaining % ≤ 80%) | A (0% ≤ substrate protein remaining % ≤ 80%) | A (0% ≤ substrate protein remaining % ≤ 80%) | A (0% ≤ substrate protein remaining % ≤ 80%) | A (0% ≤ substrate protein remaining % ≤ 80%) | –
100 to 500 | 10 to 50 | 100 to 500 | 50 to 100 | 10 to 50 | 10 to 50 | 500 to 1000 | – | – | O=C1CCC(N2Cc3cc(CN4CCC(c5ccc(F)cc5)CC4)ccc3C2=O)C(=O)N1 (stereo not shown) [GT-04471, 3-(5-((4-(4-fluorophenyl)piperidin-1-yl)methyl)-1-oxoisoindolin-2-yl)piperidine-2,6-dione] | B (80%< substrate protein remaining %≤ 100%) | A (0% ≤ substrate protein remaining % ≤ 80%) | A (0% ≤ substrate protein remaining % ≤ 80%) | A (0% ≤ substrate protein remaining % ≤ 80%) | A (0% ≤ substrate protein remaining % ≤ 80%) | A (0% ≤ substrate protein remaining % ≤ 80%) | –
500 to 1000 | 50 to 100 | 500 to 1000 | 100 to 500 | 50 to 100 | 100 to 500 | 500 to 1000 | – | – | COc1ccccc1N1CCN(Cc2ccc3c(c2)CN(C2CCC(=O)NC2=O)C3=O)CC1 (stereo not shown) [GT-04490, 3-(5-((4-(2-methoxyphenyl)piperazin-1-yl)methyl)-1-oxoisoindolin-2-yl)piperidine-2,6-dione] | A (0% ≤ substrate protein remaining % ≤ 80%) | B (80%< substrate protein remaining %≤ 100%) | B (80%< substrate protein remaining %≤ 100%) | A (0% ≤ substrate protein remaining % ≤ 80%) | A (0% ≤ substrate protein remaining % ≤ 80%) | B (80%< substrate protein remaining %≤ 100%) | –
10 to 50 | 10 to 50 | 100 to 500 | 10 to 50 | 10 to 50 | – | 500 to 1000 | – | – | O=C1CCC(N2Cc3cc(CN4CCC(c5ccc(Br)cc5)CC4)ccc3C2=O)C(=O)N1 (stereo not shown) [GT-04493, 3-(5-((4-(4-bromophenyl)piperidin-1-yl)methyl)-1-oxoisoindolin-2-yl)piperidine-2,6-dione] | A (0% ≤ substrate protein remaining % ≤ 80%) | B (80%< substrate protein remaining %≤ 100%) | A (0% ≤ substrate protein remaining % ≤ 80%) | A (0% ≤ substrate protein remaining % ≤ 80%) | A (0% ≤ substrate protein remaining % ≤ 80%) | B (80%< substrate protein remaining %≤ 100%) | –
– | – | – | – | – | 100 to 500 | < 500 | 500 to 1000 | 500 to 1000 | O=C1CCC(N2Cc3cc(CN4CCN(c5c[nH]c6ncccc56)CC4)ccc3C2=O)C(=O)N1 (stereo not shown) [GT-04601, 3-(5-((4-(1H-pyrrolo[2,3-b]pyridin-3-yl)piperazin-1-yl)methyl)-1-oxoisoindolin-2-yl)piperidine-2,6-dione] | A (0% ≤ substrate protein remaining % ≤ 80%) | A (0% ≤ substrate protein remaining % ≤ 80%) | A (0% ≤ substrate protein remaining % ≤ 80%) | A (0% ≤ substrate protein remaining % ≤ 80%) | B (80%< substrate protein remaining %≤ 100%) | A (0% ≤ substrate protein remaining % ≤ 80%) | –
– | – | – | – | – | 10 to 50 | < 500 | 100 to 500 | 500 to 1000 | Cc1sc2ncnc(C3=CCN(Cc4ccc5c(c4)CN(C4CCC(=O)NC4=O)C5=O)CC3)c2c1C (stereo not shown) [GT-04727, 3-(5-((4-(5,6-dimethylthieno[2,3-d]pyrimidin-4-yl)-3,6-dihydropyridin-1(2H)-yl)methyl)-1-oxoisoindolin-2-yl)piperidine-2,6-dione] | A (0% ≤ substrate protein remaining % ≤ 80%) | A (0% ≤ substrate protein remaining % ≤ 80%) | A (0% ≤ substrate protein remaining % ≤ 80%) | A (0% ≤ substrate protein remaining % ≤ 80%) | B (80%< substrate protein remaining %≤ 100%) | A (0% ≤ substrate protein remaining % ≤ 80%) | –
– | – | – | – | – | 1 to 5 | 1500 to 1900 | 10 to 50 | 10 to 50 | O=C1CCC(N2Cc3cc(CN4CCC(c5noc6cc(F)ccc56)CC4)c(F)cc3C2=O)C(=O)N1 (stereo not shown) [GT-04766, 3-(6-fluoro-5-((4-(6-fluorobenzo[d]isoxazol-3-yl)piperidin-1-yl)methyl)-1-oxoisoindolin-2-yl)piperidine-2,6-dione] | – | – | – | – | – | – | 10 to 50

Compound | IC50 [1] [nM] | IC50 [4] [nM] | IC50 [5] [nM] | IC50 [10] [nM] | IC50 [11] [nM] | IC50 [12] [nM] | IC50 [13] [nM] | IC50 [15] [nM] | IC50 [16] [nM] | CK1a substrate protein remaining % [2] | IKZF 1 substrate protein remaining % [3] | Weel substrate protein remaining % [6] | GSPT1 substrate protein remaining % [7] | IKZF2 substrate protein remaining % [8] | IKZF3 substrate protein remaining % [9] | IC50 [14] [nM]
O=C1CCC(N2Cc3cc(CN4CC=C(c5nccc(Cl)c5Cl)CC4)ccc3C2=O)C(=O)N1 (stereo not shown) [GT-04570, 3-(5-((3,4-dichloro-3',6'-dihydro-[2,4'-bipyridin]-1'(2'H)-yl)methyl)-1-oxoisoindolin-2-yl)piperidine-2,6-dione] | – | – | – | – | – | 1 to 5 | 500 to 1000 | 1 to 5 | 10 to 50 | A (0% ≤ substrate protein remaining % ≤ 80%) | A (0% ≤ substrate protein remaining % ≤ 80%) | A (0% ≤ substrate protein remaining % ≤ 80%) | A (0% ≤ substrate protein remaining % ≤ 80%) | A (0% ≤ substrate protein remaining % ≤ 80%) | A (0% ≤ substrate protein remaining % ≤ 80%) | 10 to 50
